The target of one data set is T1, p53 Y220C mutant (Homo sapiens, UniProt P04637, Y220C).
T1 construct: Recombinant His-tagged p53 Y220C (94-312) used for HTRF assays was expressed in E. coli; made in house; host or cells: E. coli
Nature of the data set: HTRF assay: compounds promoting the binding of p53 Y220C mutant with DNA. The data set is classed as biochemical. The note with it: HTRF/FRET; His-tagged p53 Y220C (94-312) with biotin-labeled DNA; incubated overnight. How it is done:
Homogeneous time-resolved fluorescence (HTRF) assay was used to measure the reactivation effect of compounds on the p53 Y220C mutant. Recombinant His-tagged p53 Y220C (94-312) used for HTRF assays was expressed in E. coli and purified to 90% purity using a Ni-NTA column. The biotin-labeled DNA used for HTRF assays was synthesized by Pharmaron Inc, with the specific sequence of 5'-[…]-3'.
The binding of recombinant His-tagged p53 Y220C protein with biotin-labeled DNA was measured using fluorescence resonance energy transfer (FRET). For FRET assays, the binding between the p53 mutant and the DNA sequences was measured by detecting the fluorescence of the interaction between Eu-conjugated anti-His antibody (Cisbio, 61HI2KLA) and d2-conjugated streptavidin (Cisbio, 610SADLF) bound to a biotin-labeled DNA molecule. Compounds were prepared as 2 mM stock solutions and serially diluted 1:3 in DMSO to obtain 10 concentrations. Each compound at 200× working concentration was sequentially diluted to 4× working concentration. 4 µL of compound solution was transferred row-by-row to a 384-well assay plate using Echo, with 2 replicates per column. Subsequently, 4 µL of p53 solution was added to the assay plate, followed by 4 µL of biotinylated DNA solution, and then 4 µL of assay solution (His-Eu antibody and streptavidin-d2) was added to each well. The assay plate was incubated overnight in the dark. Fluorescence was read on a BMG microplate reader (BMG LABTECH).
The ratio for each well was calculated (ratio_665 nm/615 nm - ratio_background). The activity (%) was calculated as follows: C = (Ave_Ac−Ave_Ba)/(Ave_Dc−Ave_Bd) [formula] R data = (A−Ave_Ba−C×D)/(D−Ave_Bd) × (Ave_Dc−Ave_Bd) [formula] Activity (%) = R data/Ave_VC × 100. [formula] • A: fluorescence intensity of the sample at 665 nm; • D: fluorescence intensity of the sample at 615 nm; • Ba: fluorescence intensity of the plate background at 665 nm; • Bd: fluorescence intensity of the plate background at 615 nm; • Dc: fluorescence intensity of HIS-Eu background at 615 nm; • Ac: fluorescence intensity of streptavidin-d2 background at 665 nm; • VC: DMSO treatment group.
SC150 was calculated using GraphPad 8.0 to fit the logarithm of activity (%) versus compound concentration to a nonlinear regression (dose response-variable slope). Table 1: Activity of compounds promoting the binding of p53 Y220C mutant with DNA

Another data set concerns NUGC-3 cells. Put plainly: Anti-proliferation effect on NUGC-3 cells (Cell Counting Kit-8). The data set is classed as cell-based. The note with it: Homo sapiens, NUGC-3, 120 h, 5 days of treatment. How it is done:
Cell line NUGC-3 (JCRB, JCRB0822) was cultured in RPMI 1640 medium (Invitrogen, 11875-085) supplemented with 10% (v/v) fetal bovine serum (BI, 04-002-1A), according to the standard instructions of the American Type Culture Collection. The cell line was authenticated by short tandem repeat profiling.
In the proliferation assay, 1000 NUGC-3 cells were seeded in a 96-well flat clear bottom, TC-treated plate (Corning, 3903) in 200 µL of medium per well, and allowed to recover overnight in culture medium. Compounds were added with increasing concentration, with DMSO treatment serving as a […]. After 5 days of treatment, the plate was equilibrated to room temperature for 30 minutes, and the number of living cells was measured by the addition of the Cell Counting Kit-8 reagent (MCE, HY-K0301). Absorbance was measured on an EnSpire microplate reader (PerkinElmer). The relative viability of each group was presented as the percentage change relative to the […] group and then fit to a four-parameter logit non-linear curve using the program XLFit (IDBS). Table 2: Anti-proliferation activity of compounds on NUGC-3 cells

For a further data set, the target named is T2, CYP1A2 (Homo sapiens, UniProt P05177).
T2 construct: from tissue; host or cells: liver microsomes
T2 sequence (P05177 1-516): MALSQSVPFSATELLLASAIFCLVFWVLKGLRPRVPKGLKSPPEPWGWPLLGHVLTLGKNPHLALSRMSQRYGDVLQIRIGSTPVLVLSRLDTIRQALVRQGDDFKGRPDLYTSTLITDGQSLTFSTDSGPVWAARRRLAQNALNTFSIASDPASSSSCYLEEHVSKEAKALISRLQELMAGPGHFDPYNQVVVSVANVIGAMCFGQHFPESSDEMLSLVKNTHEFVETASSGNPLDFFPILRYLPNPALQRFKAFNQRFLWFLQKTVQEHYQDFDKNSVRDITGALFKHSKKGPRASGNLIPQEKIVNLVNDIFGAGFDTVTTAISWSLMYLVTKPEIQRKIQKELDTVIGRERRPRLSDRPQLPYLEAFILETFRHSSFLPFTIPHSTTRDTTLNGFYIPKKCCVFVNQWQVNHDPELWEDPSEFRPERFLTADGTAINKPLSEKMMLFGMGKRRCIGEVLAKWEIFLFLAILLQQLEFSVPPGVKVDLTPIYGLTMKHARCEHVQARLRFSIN
Put plainly: Inhibitory activity on CYP isoenzymes at a single concentration (liver microsomes). The data set is classed as in vitro ADME. The note with it: pH 7.4, probe phenacetin, Final compound concentration: 10 µM, substrate Phenacetin, read-out: Inhibition rate (%) CYP1A2. How it is done: (§1) • 1. […] Experimental instrument and reagents: [table] […] The mixture was added with HCl to adjust the pH to 7.4 and brought to a final volume of 1000 mL with water. […] [table] [table] Liver microsomes were thawed in a water bath at 37°C prior to use. […] A 5 mM NADPH working solution was prepared in phosphate-buffered saline. […] 300 µL of the supernatant was aliquoted for further LC-MS/MS analysis. […] Table 3: Inhibitory activity of compounds on CYP isoenzymes*

In another data set the target is T3, CYP2C19 (Homo sapiens, UniProt P33261).
T3 construct: Liver microsomes were thawed in a water bath at 37°C prior to use; from tissue; host or cells: liver microsomes
T3 sequence (P33261 whole entry): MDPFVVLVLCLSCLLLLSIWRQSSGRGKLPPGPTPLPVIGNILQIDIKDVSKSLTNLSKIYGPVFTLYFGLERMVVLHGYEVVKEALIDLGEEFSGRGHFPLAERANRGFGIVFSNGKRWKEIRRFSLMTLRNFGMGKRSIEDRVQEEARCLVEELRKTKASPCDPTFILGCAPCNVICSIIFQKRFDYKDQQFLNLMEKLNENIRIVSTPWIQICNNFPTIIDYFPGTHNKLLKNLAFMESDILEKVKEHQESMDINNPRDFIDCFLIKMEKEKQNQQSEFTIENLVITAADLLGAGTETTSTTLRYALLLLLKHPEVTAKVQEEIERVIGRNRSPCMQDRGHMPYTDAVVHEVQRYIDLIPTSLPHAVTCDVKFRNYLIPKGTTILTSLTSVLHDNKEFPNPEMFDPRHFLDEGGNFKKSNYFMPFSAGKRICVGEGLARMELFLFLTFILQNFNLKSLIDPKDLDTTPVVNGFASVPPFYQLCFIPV
Described as above. The data set is classed as in vitro ADME. The note with it: pH 7.4, probe mephenytoin, Final compound concentration: 10 µM, substrate Mephenytoin, read-out: Inhibition rate (%) CYP2C19. How it is done:
as §1

The target of the next data set is T4, CYP2C9 (Homo sapiens, UniProt P11712).
T4 construct: Liver microsomes were thawed in a water bath at 37°C prior to use; from tissue; host or cells: liver microsomes
T4 sequence (P11712 whole entry): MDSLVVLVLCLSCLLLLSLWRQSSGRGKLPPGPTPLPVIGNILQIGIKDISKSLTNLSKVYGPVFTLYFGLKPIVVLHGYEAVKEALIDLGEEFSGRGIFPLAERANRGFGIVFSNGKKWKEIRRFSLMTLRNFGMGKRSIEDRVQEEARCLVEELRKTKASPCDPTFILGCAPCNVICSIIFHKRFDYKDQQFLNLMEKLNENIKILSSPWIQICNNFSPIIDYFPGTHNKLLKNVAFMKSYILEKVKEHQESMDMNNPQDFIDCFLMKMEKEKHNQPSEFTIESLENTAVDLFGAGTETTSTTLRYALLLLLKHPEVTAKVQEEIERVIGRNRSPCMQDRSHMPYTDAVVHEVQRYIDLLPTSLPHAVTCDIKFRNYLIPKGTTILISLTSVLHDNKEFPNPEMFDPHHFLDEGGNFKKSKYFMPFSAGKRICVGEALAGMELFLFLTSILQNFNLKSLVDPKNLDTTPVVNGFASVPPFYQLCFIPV
The data set is described as above. The note with it: pH 7.4, probe diclofenac, Final compound concentration: 10 µM, substrate Diclofenac, read-out: Inhibition rate (%) CYP2C9. The data set is classed as in vitro ADME. How it is done:
as §1

In another data set the target is T5, CYP2D6 (Homo sapiens, UniProt P10635).
T5 construct: Liver microsomes were thawed in a water bath at 37°C prior to use; from tissue; host or cells: liver microsomes
T5 sequence (P10635 whole entry): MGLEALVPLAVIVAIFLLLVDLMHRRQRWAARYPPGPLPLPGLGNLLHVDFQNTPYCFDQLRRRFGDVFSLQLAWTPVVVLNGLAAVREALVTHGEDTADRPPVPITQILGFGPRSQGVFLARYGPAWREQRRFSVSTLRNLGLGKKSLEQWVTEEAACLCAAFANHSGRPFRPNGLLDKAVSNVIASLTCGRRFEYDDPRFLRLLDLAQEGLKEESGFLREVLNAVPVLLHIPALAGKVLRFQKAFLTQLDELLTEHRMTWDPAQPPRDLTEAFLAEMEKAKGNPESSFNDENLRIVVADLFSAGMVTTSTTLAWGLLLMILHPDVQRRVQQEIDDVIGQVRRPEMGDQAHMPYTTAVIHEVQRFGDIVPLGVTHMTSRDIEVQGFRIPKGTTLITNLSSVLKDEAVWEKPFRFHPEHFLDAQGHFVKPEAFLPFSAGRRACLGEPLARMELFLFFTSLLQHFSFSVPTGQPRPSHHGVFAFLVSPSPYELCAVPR
The description is as above. The data set is classed as in vitro ADME. The note with it: pH 7.4, probe dextromethorphan, Final compound concentration: 10 µM, substrate Dextromethorphan, read-out: Inhibition rate (%) CYP2D6. As to the method:
as §1

Data set [1] has as its system CYP3A4/5. The data set is described as above. The data set is classed as in vitro ADME. As to conditions: Final compound concentration: 10 µM, human liver microsomes. How it is done:
• 1. […] Experimental instrument and reagents:
(§2) The mixture was added with HCl to adjust the pH to 7.4 and brought to a final volume of 1000 mL with water.
Liver microsomes were thawed in a water bath at 37°C prior to use. […] A 5 mM NADPH working solution was prepared in phosphate-buffered saline.
(§3) 300 µL of the supernatant was aliquoted for further LC-MS/MS analysis.
Table 3: Inhibitory activity of compounds on CYP isoenzymes*
(In general: Liver microsomes are vesicles of endoplasmic reticulum, rich in cytochrome P450 enzymes.)

In data set [2] the test system is CYP3A4/5. Put plainly: Multi-concentration inhibitory activity curve of CYP3A4/5 enzymes (liver microsomes). The data set is classed as in vitro ADME. The note with it: human liver microsomes. How it is done:
• 1. Experimental purpose: To determine the concentration inhibitory activity curve of compounds on CYP3A4/5 enzymes. • 2. Experimental instrument and materials:
as §2
Liver microsomes were thawed in a water bath at 37°C prior to use. […] A 5 mM NADPH working solution was prepared in phosphate-buffered saline. […] The above stock solution was diluted with acetonitrile (4-fold dilution, 6 non-zero concentrations).
as §3
The half-maximal inhibitory concentration (IC50) was calculated using Graph Pad Prism. Table 3: Inhibitory activity of compounds on CYP3A4/5 enzymes

For the next data set, the target named is T6, hERG potassium channel (Homo sapiens, UniProt Q12809).
T6 construct: host or cells: HEK293
T6 sequence (Q12809 whole entry): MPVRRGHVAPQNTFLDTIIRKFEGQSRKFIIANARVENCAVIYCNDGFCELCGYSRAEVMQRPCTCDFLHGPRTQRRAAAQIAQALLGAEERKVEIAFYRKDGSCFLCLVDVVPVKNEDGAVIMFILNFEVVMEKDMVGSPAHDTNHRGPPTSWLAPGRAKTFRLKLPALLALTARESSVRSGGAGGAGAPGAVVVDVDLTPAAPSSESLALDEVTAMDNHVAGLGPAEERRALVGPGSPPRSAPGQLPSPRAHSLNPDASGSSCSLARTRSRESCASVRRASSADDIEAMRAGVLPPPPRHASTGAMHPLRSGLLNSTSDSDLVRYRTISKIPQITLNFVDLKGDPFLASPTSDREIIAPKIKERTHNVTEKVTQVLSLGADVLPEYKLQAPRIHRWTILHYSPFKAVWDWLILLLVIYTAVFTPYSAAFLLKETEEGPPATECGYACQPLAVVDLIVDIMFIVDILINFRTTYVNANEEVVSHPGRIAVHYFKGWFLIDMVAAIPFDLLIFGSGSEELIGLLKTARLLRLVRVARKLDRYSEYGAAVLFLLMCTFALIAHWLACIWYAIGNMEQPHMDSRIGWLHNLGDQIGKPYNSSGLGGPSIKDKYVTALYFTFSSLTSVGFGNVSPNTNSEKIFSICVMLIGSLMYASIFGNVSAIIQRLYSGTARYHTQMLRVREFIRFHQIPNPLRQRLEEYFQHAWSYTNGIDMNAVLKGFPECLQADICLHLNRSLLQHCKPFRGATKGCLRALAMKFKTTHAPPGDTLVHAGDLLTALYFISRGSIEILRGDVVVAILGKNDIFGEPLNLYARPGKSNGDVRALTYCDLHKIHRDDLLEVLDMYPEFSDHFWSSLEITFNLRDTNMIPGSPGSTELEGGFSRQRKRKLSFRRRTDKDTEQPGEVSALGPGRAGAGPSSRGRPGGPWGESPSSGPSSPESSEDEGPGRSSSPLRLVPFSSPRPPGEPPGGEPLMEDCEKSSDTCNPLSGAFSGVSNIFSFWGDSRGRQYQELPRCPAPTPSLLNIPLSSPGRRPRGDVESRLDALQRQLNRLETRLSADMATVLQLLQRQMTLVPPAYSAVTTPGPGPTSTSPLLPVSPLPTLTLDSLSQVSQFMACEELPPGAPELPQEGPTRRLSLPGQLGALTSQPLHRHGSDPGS
Nature of the data set: Manual patch-clamp test of the inhibitory activity on hERG potassium channel. The data set is classed as cell-based. The note with it: HEK293 cell line stably expressing the hERG ion channel, five concentrations 0.37 to 30 µM, n = 2. Background: Patch clamp records ionic current or voltage across a cell membrane.

Setting [3] is: pH 7.4, probe midazolam, substrate Midazolam, read-out: Inhibition rate (%) CYP3A4/5 (Midazolam).
Where [4] appears, read: pH 7.4, probe testosterone, substrate Testosterone, read-out: Inhibition rate (%) CYP3A4/5 (Testosterone).
Setting [5] is: pH 7.4, probe midazolam, midazolam as substrate.
Where [6] appears, read: pH 7.4, probe testosterone, testosterone as substrate.

Read-outs that look alike come from different tables or passages of the source.

Method for hERG potassium channel: This experiment was conducted to evaluate the effect of compounds in five concentrations on hERG channel current, obtaining a dose-effect curve and calculating the IC50.
Cell line and cell culture: HEK293 cell line stably expressing the hERG ion channel (Cat. No.: K1236) was purchased from Invitrogen. The cell line was cultured in medium containing 85% DMEM, 10% dialyzed fetal bovine serum, 0.1 mM non-essential amino acid solution, 100 U/mL penicillin-streptomycin solution, 25 mM HEPES, 5 µg/mL blasticidin, and 400 µg/mL geneticin. When the cell density grew to 40% to 80% of the bottom area of the culture dish, the cells were digested with trypsin and passaged three times per week. Prior to the experiment, the cells were cultured at a density of 5 × 10^5 cells per 3.5 cm culture dish, induced with 1 µg/mL doxycycline for 48 hours, followed by digestion, and seeded onto glass slides for subsequent manual patch-clamp experiments.
Solution preparation: Extracellular fluid (in mM): 132 sodium chloride, 4 potassium chloride, 3 calcium chloride, 0.5 magnesium chloride, 11.1 glucose, and 10 HEPES (pH adjusted to 7.35 with sodium hydroxide). Intracellular fluid (in mM): 10 EGTA, 10 HEPES, 10 potassium chloride, 10 sodium chloride, and 110 potassium fluoride (pH adjusted to 7.2 with potassium hydroxide). Osmolality of the solutions was controlled between 280 and 300 mOsmol/kg. The solutions were filtered and stored at 4°C prior to use.
Preparation of test compound solutions: Following the standard operating procedures, test compounds were dissolved in DMSO and prepared into a stock solution with a final concentration of 10 mM. The stock solution was serially diluted 1:3 in DMSO as the solvent to obtain three intermediate solutions with concentrations of 3.33, 1.11, and 0.37 mM. Prior to the experiment, the test compound intermediate solutions were further diluted 1:1000 with extracellular fluid to prepare a series of working solutions. […]

One may read the IC50 as the concentration needed to halve the response being measured. A low value points to greater potency in that assay. In the case of `[2H]C([2H])([2H])Oc1nc(C(=O)O)ccc1NCC#Cc1cc2c(N[C@@H]3CCN(C)C[C@@H]3F)cccn2c1CC(F)(F)F` [Cpd-1, 5-((3-(8-(((3S,4R)-3-Fluoro-1-methylpiperidin-4-yl)amino)-3-(2,2,2-trifluoroethyl)indolizin-2-yl)prop-2-yn-1-yl)amino)-6-(methoxy-d3)picolinic acid], the SC150 at p53 Y220C mutant amounted to 0.4 nM. The IC50 was 0.1 µM with NUGC-3 cells and above 30 µM against hERG potassium channel. The inhibition at 10 min, 10 µM was 6.3% at CYP1A2; 5.5% at CYP2C19; below 0% on CYP2C9; 2.6% at CYP2D6; 3.4% in the data set on CYP3A4/5 [1] (setting [3]); below 0% in the data set with CYP3A4/5 [1] (setting [4]). Moreover, the IC50 at 10 min in the data set with CYP3A4/5 [2] (setting [5]) and in the data set with CYP3A4/5 [2] (setting [6]) was above 50 µM throughout.
In the case of `COc1nc(C(=O)O)ccc1NCC#Cc1cc2c(N[C@@H]3CCN(C)C[C@@H]3F)cccn2c1CC(F)(F)F` [Cpd-2, 5-((3-(8-(((3S,4R)-3-Fluoro-1-methylpiperidin-4-yl)amino)-3-(2,2,2-trifluoroethyl)indolizin-2-yl)prop-2-yn-1-yl)amino)-6-methoxypicolinic acid], the SC150 on p53 Y220C mutant came out at 0.5 nM. In addition, the IC50 in the data set with NUGC-3 cells is 0.12 µM; at hERG potassium channel, above 30 µM. The inhibition at 10 min, 10 µM is 1.2% at CYP1A2; 1.9% at CYP2C19; below 0% on CYP2C9; 0.73% at CYP2D6; below 0% with CYP3A4/5 [1] (setting [3]); 1.7% in the data set on CYP3A4/5 [1] (setting [4]). Further, the IC50 at 10 min with CYP3A4/5 [2] (setting [5]) and with CYP3A4/5 [2] (setting [6]) was above 50 µM each time.
In turn, `CNC(=O)c1ccc(NCC#Cc2cc3c(N[C@@H]4CCN(C)C[C@@H]4F)cccc3n2CC(F)(F)F)c(OC)c1` [Cpd-A] returned an SC150 on p53 Y220C mutant of 10 nM. In addition, the IC50 in the data set with NUGC-3 cells stood at 0.78 µM; against hERG potassium channel, 19 µM. Also, the inhibition at 10 min, 10 µM at CYP1A2 came out at 12%; at CYP2C19, 42%; on CYP2C9, 38%; on CYP2D6 it was 5.5%; in the data set on CYP3A4/5 [1] (setting [3]), 83%. In addition, the IC50 at 10 min was 2.3 µM in the data set on CYP3A4/5 [2] (setting [5]) and 0.89 µM in the data set on CYP3A4/5 [2] (setting [6]).
For the compound `COc1cc(S(C)(=O)=O)ccc1NCC#Cc1nc2c(N[C@@H]3CCN(C)C[C@@H]3F)cccn2c1CC(F)(F)F` [Cpd-B], the SC150 on p53 Y220C mutant came out at 15 nM. In the data set with NUGC-3 cells, this compound yielded an IC50 of 0.36 µM. In addition, the inhibition at 10 min, 10 µM at CYP1A2 was 0.56%; at CYP2C19, 31%; on CYP2C9 it was 21%; at CYP2D6, 3.6%; with CYP3A4/5 [1] (setting [3]) it was 61%; in the data set on CYP3A4/5 [1] (setting [4]) it was 75%.
`CNC(=O)c1ccc(NCC#Cc2cc3c(N[C@@H]4CCN(C)C[C@@H]4F)cccn3c2CC(F)(F)F)c(OC)c1` [Cpd-C, 4-((3-(8-(((3S,4R)-3-Fluoro-1-methylpiperidin-4-yl)amino)-3-(2,2,2-trifluoroethyl)indolizin-2-yl)prop-2-yn-1-yl)amino)-3-methoxy-N-methylbenzamide] registered an SC150 at p53 Y220C mutant of 4.6 nM. The same compound yielded an IC50 with NUGC-3 cells of 0.23 µM. The inhibition at 10 min, 10 µM on CYP1A2 was 18%; at CYP2C19 it was 67%; on CYP2C9, 43%; on CYP2D6 it was 9.5%; with CYP3A4/5 [1] (setting [3]) it was 79%. This compound also registered an IC50 at 10 min in the data set with CYP3A4/5 [2] (setting [5]) of 3.8 µM.

The values are drawn from EP4793277A1, “CARBOXYLIC ACID COMPOUND AND PREPARATION METHOD THEREFOR AND USE THEREOF” (Nutshell Therapeutics (Shanghai) Co., Ltd., priority 2023, dated 2025).
